# Read-outs that look alike come from different tables or passages of the source.
# Columns and labels:
# [1] = ALT level in mouse serum during pharmacokinetics study; type: in vivo; details: mouse model
# [2] = system: Huh7.5.1 cells; assay: ATPlite cytotoxicity assay; type: cell-based
# [3] = In vivo pharmacokinetics and tissue distribution in mice; design: species or system male CD-1 mice; details: mouse, single i.p. dose 1 mg/kg
# [4] = PAMPA permeability; type: in vitro ADME
# [5] = aqueous kinetic solubility; type: physicochemical; details: phosphate buffer (pH 7.4)
Compound,PAMPA permeability [4],also measured
"Cc1oc(-c2ccc(Cl)c(Cl)c2)nc1CN1CCC(C(=O)NCCCN2C[C@H](C)C[C@H](C)C2)CC1 [7ii, N-(3-(cis-3,5-Dimethylpiperidin-1-yl)propyl)-1-((2-(3,4-dichlorophenyl)-5-methyloxazol-4-yl)methyl)piperidine-4-carboxamide]",522 1×10^−6 cm/s,hepatotoxicity indicated by ALT level [1]: without obvious hepatotoxicity; cytotoxicity in combination (ATPlite) [2]: without significant cytotoxicity; liver concentration throughout 24 h post-administration [3]: 3.33 to 9.82 µM
"Cc1cccc(C)c1-c1nc(CN2CCC(C(=O)NCCCN3C[C@H](C)C[C@H](C)C3)CC2)c(C)o1 [7w, N-(3-(cis-3,5-Dimethylpiperidin-1-yl)propyl)-1-((2-(2,6-dimethylphenyl)-5-methyloxazol-4-yl)methyl)piperidine-4-carboxamide]",253.9 1×10^−6 cm/s,
"Cc1ccc(-c2nc(CN3CCC(C(=O)NCCCN4C[C@H](C)C[C@H](C)C4)CC3)c(C)o2)cc1C [7x, N-(3-(cis-3,5-Dimethylpiperidin-1-yl)propyl)-1-((2-(3,4-dimethylphenyl)-5-methyloxazol-4-yl)methyl)piperidine-4-carboxamide]",219.4 1×10^−6 cm/s,
"Cc1ccc(-c2nc(CN3CCC(C(=O)NCCCN4C[C@H](C)C[C@H](C)C4)CC3)c(C)o2)c(C)c1 [7y, N-(3-(cis-3,5-Dimethylpiperidin-1-yl)propyl)-1-((2-(2,4-dimethylphenyl)-5-methyloxazol-4-yl)methyl)piperidine-4-carboxamide]",353.1 1×10^−6 cm/s,
COc1ccc(-c2nc(CN3CCC(C(=O)NCCCN4C[C@H](C)C[C@H](C)C4)CC3)c(C)o2)cc1OC [7yy],81.9 1×10^−6 cm/s,
"Cc1cc(C)cc(-c2nc(CN3CCC(C(=O)NCCCN4C[C@H](C)C[C@H](C)C4)CC3)c(C)o2)c1 [7z, N-(3-(cis-3,5-Dimethylpiperidin-1-yl)propyl)-1-((2-(3,5-dimethylphenyl)-5-methyloxazol-4-yl)methyl)piperidine-4-carboxamide]",864 1×10^−6 cm/s,
"CCN(CC)CCCCNC(=O)C1CCN(Cc2nc(-c3ccc(OC)c(OC)c3)oc2C)CC1 [7zz, N-(4-(Diethylamino)butyl)-1-((2-(3,4-dimethoxyphenyl)-5-methyloxazol-4-yl)methyl)piperidine-4-carboxamide]",10.4 1×10^−6 cm/s,
"Cc1cc(-c2nc(CN3CCC(C(=O)NCCCN4C[C@H](C)C[C@H](C)C4)CC3)co2)ccc1F [18a, N-(3-(cis-3,5-Dimethylpiperidin-1-yl)propyl)-1-((2-(4-fluoro-3-methylphenyl)oxazol-4-yl)methyl)piperidine-4-carboxamide]",215.4 1×10^−6 cm/s,
"Cc1cc(-c2nc(CN3CCC(C(=O)NCCCN4CCC(C(C)C)CC4)CC3)co2)ccc1F [18b, 1-((2-(4-Fluoro-3-methylphenyl)oxazol-4-yl)methyl)-N-(3-(4-isopropylpiperidin-1-yl)propyl)piperidine-4-carboxamide]",276.4 1×10^−6 cm/s,
"N-(3-(cis-3,5-Dimethylpiperidin-1-yl)propyl)-1-((2-(2-chloro-6-methoxyphenyl)-5-methyloxazol-4-yl)methyl)piperidine-4-carboxamide [7ww]",,aqueous solubility [5]: >73.0 µg/mL; PAMPA permeability ([4]; PAMPA): 197.7 1×10^−6 cm/s
